Laboratory results reported in patent US5189034A, “Benzoxazinone and benzothiazinone derivatives endowed with cardiovascular activity” (Italfarmaco S.P.A., priority 1990, dated 1993).

Assays:
[1] = B. W. Horrom et al., J. Org. Chem., 72, 721 (1950); cited from earlier work
[2] = tested on: rabbit aorta strip contracted with noradrenaline; assay: rabbit aorta strip contracted with noradrenaline (in vitro vasorelaxing activity); format: cell-based; settings: Oryctolagus cuniculus, concentration causing 50% inhibition of the contraction of the rabbit aorta strip, read-out: Vasodilative activity in vitro IC50
Method: The in vitro vasorelaxing activity was determined by the test of the rabbit aorta strip contracted with noradrenaline. The test was carried out according to the method described by K. Murakami et al., Eur. J. Pharmacol., 141, 195 (1987).
The IC50 values i.e., the concentrations of active substances, causing a 50% inhibition of the contraction of the rabbit strip, were determined.

[3] = tested on: Arg-vasopressin induced coronaric spasm in anesthetized Sprague Dawley rats; assay: antianginal activity in vivo, Arg-vasopressin-induced coronaric spasm (increase of the T-wave); settings: for % Inhibition of the increase of the T-wave versus the controls: 3 mg/Kg per os, Arg-vasopressin i.v.; for ED50: Rattus norvegicus, iv, 4 increasing doses, Arg-vasopressin, read-out: ED50 (i.v.), dose yielding the 50% inhibition of the increase of the T-wave
Method: The antianginal activity in vivo was determined on anesthetized Sprague Dawley rats of weight 350-400 g, operating according to the method of M. Leitold et al., Arzeim. Forsch., 36, 1454, (1986). The test was carried out by intravenously administering the animals with one I.U/Kg, equivalent to […] of Arg-vasopressin, thus inducing a coronaric spasm that is reproducible and may be electrocardiographically monitored by an increase of the T-wave. The compounds of the invention were administered by gastric gavage at a dose of 3 mg/Kg one […] before the administration of Arg-vasopressin. The antianginal effect was expressed as the percentage inhibition of the increase of the T-wave versus the controls. Another group of animals were intravenously administered with 4 increasing doses of the compound of the invention to measure their ED50, i.e. the dose yielding the 50% inhibition of the increase of the T-wave.

Structure (SMILES) | IC50 [2] | analgesic activity [1] | % Inhibition of the increase of the T-wave versus the controls [3] | ED50 [3]
O=C1NC(c2ccccc2)Oc2ccccc21 (stereo not shown) [2,3-dihydro-2-phenyl-4H-1,3-benzoxazin-4-one] |  | endowed with analgesic activity |  | 
Cc1ccc2c(c1)C(=O)N(CCO[N+](=O)[O-])CO2 [Example 2, 2,3-Dihydro-6-methyl-3-(2'-nitrooxyethyl)-4H-1,3-benzoxazin-4-one] | 5.4 nM |  |  | 0.0063 mg/kg
Cc1ccc2c(c1)OCN(CCO[N+](=O)[O-])C2=O [Example 4, 2,3-Dihydro-7-methyl-3-(2'-nitrooxyethyl)-4H-1,3-benzoxazin-4-one] | 75 nM |  | 31% | 0.012 mg/kg
COc1ccc2c(c1)OCN(CCO[N+](=O)[O-])C2=O [Example 9, 2,3-Dihydro-7-methoxy-3-(2'-nitrooxyethyl)-4H-1,3-benzoxazin-4-one] | 14 nM |  |  | 
O=C1c2ccccc2SCN1CCO[N+](=O)[O-] [Example 10, 3(2'-nitrooxyethyl)-2,3-dihydro-4H-1,3-benzothiazin-4-one] | 17 nM |  |  | 

More lines, main results first:

IC50 [2] | Structure (SMILES) | analgesic activity [1] | % Inhibition of the increase of the T-wave versus the controls [3] | ED50 [3]
94 nM | O=C1c2ccccc2OCN1CCO[N+](=O)[O-] [Example 1, 2,3-Dihydro-3-(2'-nitrooxyethyl)-4H-1,3-benzoxazin-4-one] |  | 55% | 0.0013 mg/kg
6.3 nM | O=C1c2ccc(Cl)cc2OCN1CCO[N+](=O)[O-] [Example 3, 7-Chloro-2,3-dihydro-3-(2'-nitrooxyethyl)-4H-1,3-benzoxazin-4-one] |  | 31% | 0.011 mg/kg
19 nM | O=C1c2ccccc2OCN1CCCCCO[N+](=O)[O-] [Example 8, 2,3-Dihydro-3-(5'-nitrooxypentyl)-4H-1,3-benzoxazin-4-one] |  |  | 0.058 mg/kg
